# Reference: patent publication US20110313001A1, “TRIAZOLE DERIVATIVES FOR TREATMENT OF ALZHEIMER'S DISEASE” (priority 2008, published 2011)
# Structures can show the parent of a compound that is named as a salt.
# Tested on: Aβ(1-42)
# Assay: Cell-based γ-secretase assay, Aβ(1-42) inhibition
# Conditions: Homo sapiens; SH-SY5Y neuroblastoma cells overexpressing SPA4CT
# Experimental: Cell-Based γ-Secretase Assay
# Human SH-SY5Y neuroblastoma cells overexpressing the direct γ-secretase substrate SPA4CT were induced with sodium butyrate (10 mM) for 4 hours prior to plating. Cells were plated at 35,000 cells/well/100 μl in 96-well plates in phenol red-free MEM/10% FBS, 50 mM HEPES, 1% Glutamine and incubated for 2 hrs at 37° C., 5% CO2.
# Compounds for testing were diluted into Me2SO to give a ten point dose-response curve. Typically 10 μl of these diluted compounds in Me2SO were further diluted into 182 μl dilution buffer (phenol red-free MEM/10% FBS, 50 mM HEPES, 1% Glutamine) and 10 μl of each dilution was added to the cells in 96-well plates (yielding a final Me2SO concentration of 0.5%). Appropriate vehicle and inhibitor controls were used to determine the window of the assay.
# After incubation overnight at 37° C., 5% CO2, 25 μl and 50 μl media were transferred into a standard Meso avidin-coated 96-well plate for detection of Aβ(40) and Aβ(42) peptides, respectively. 25 μl Meso Assay buffer (PBS, 2% BSA, 0.2% Tween-20) was added to the Aβ(40) wells followed by the addition of 25 μl of the respective antibody premixes to the wells:
# Aβ(40) premix: 1 μg/ml ruthenylated G2-10 antibody, 4 μg/ml; and biotinylated 4G8 antibody diluted in Origen buffer
# Aβ(42) premix: 1 μg/ml ruthenylated G2-11 antibody, 4 μg/ml; and biotinylated 4G8 antibody diluted in Origen buffer
# (Biotinylated 4G8 antibody supplied by Signet Pathology Ltd; G2-10 and G2-11 antibodies supplied by Chemicon)
# After overnight incubation of the assay plates on a shaker at 4° C., the Meso Scale Sector 6000 Imager was calibrated according to the manufacturer's instructions. After washing the plates 3 times with 150 μl of PBS per well, 150 μl Meso Scale Discovery read buffer was added to each well and the plates were read on the Sector 6000 Imager according to the manufacturer's instructions.
# LD50 and IC50 values for inhibition of Aβ(40) and Aβ(42) were calculated by nonlinear regression fit analysis using the appropriate software (eg. Excel fit). The total signal and the background were defined by the corresponding Me2SO and inhibitor controls.
row,Compound,IC50 [µM]
1,COc1cc(-c2cn(Cc3ccc(-c4nc5ccccc5o4)cc3)nn2)ccc1-c1ccnc(C)c1 [Example 5],0.392
2,COc1cc(-c2cn(Cc3ccc(C(C)(C)C)cc3)nn2)ccc1-c1ccnc(C)c1 [Example 3],0.335
3,COc1cc(-c2cn(Cc3cc(F)cc(Cl)c3)nn2)ccc1-c1ccnc(C)c1 [Example 4],0.598
4,COc1cc(-c2cn(Cc3ccc4c(c3)C(C)(C)CCC4(C)C)nn2)ccc1-c1ccnc(C)c1 [Example 6],0.172
5,"COc1cc(-c2cn(Cc3cc(C(F)(F)F)cc(C(F)(F)F)c3)nn2)ccc1-c1ccnc(C)c1 [Example 1, 4-{4-[1-(3,5-Bis-trifluoromethyl-benzyl)-1H-1,2,3-triazol-4-yl]-2-methoxy-phenyl}-2-methyl-pyridine trifluoromethansulfonate salt]",0.203
